The values below come from patent publication US7973061B2, “Anaplastic lymphoma kinase modulators and methods of use” (Exelixis, Inc., priority 2004, dated 2011).

In the assay the target is T1, ALK (baculovirus expressed human ALK kinase domain F1098-K1410) (Homo sapiens, UniProt Q9UM73).
T1 construct: human ALK kinase domain F1098-K1410; made in house
T1 sequence (Q9UM73 1098-1410): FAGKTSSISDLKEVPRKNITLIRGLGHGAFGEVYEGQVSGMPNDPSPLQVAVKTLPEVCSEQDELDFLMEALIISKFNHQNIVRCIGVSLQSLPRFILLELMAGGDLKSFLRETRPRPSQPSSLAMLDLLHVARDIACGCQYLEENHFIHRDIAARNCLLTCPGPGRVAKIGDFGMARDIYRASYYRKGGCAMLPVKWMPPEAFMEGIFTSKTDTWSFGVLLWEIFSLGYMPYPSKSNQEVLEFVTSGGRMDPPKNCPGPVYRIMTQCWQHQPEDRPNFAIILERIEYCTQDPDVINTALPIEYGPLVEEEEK
The assay is described as follows: biochemical. Conditions: 1 μM ATP, 4 μM poly-AEKY, 12 nM ALK, 2 hours at ambient temperature; read-out: ALK IC50. In short, it runs like this:
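Inhibitors were tested at 10 concentrations, and IC50 was derived from a sigmoidal fit (Min, Max, Hill slope). Kinase activity was measured as percent ATP left after a 2 h reaction at room temperature, detected by luciferase-luciferin chemiluminescence. The ATP level was set close to KM for the ALK kinase domain F1098-K1410.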
Consider `COc1cc(CCNC(=O)c2coc(CNC(=O)COc3ccc(OC(F)(F)F)cc3)n2)cc(OC)c1` [Entry 207, N-{2-[3,5-bis(methyloxy)phenyl]ethyl}-2-({[({4-[(trifluoromethyl)oxy]phenyl}oxy)acetyl]amino}methyl)-1,3-oxazole-4-carboxamide], for which the IC50 lay within 50 to 500 nM. The figure for `O=C(COc1ccc(OC(F)(F)F)cc1)NCc1nc(C(=O)NCc2cccc(Cl)c2)cs1` [Entry 119, N-[(3-chlorophenyl)methyl]-2-({[({4-[(trifluoromethyl)oxy]phenyl}oxy)acetyl]amino}methyl)-1,3-thiazole-4-carboxamide] is 50 to 500 nM; for `COc1cccc(OC)c1CNC(=O)c1csc(CNC(=O)COc2ccc(OC(F)(F)F)cc2)n1` [Entry 106, N-{[2,6-bis(methyloxy)phenyl]methyl}-2-({[({4-[(trifluoromethyl)oxy]phenyl}oxy)acetyl]amino}methyl)-1,3-thiazole-4-carboxamide] it is 50 to 500 nM. `O=C(COc1ccc(OC(F)(F)F)cc1)NCc1nc(C(=O)NCCc2cccc(Cl)c2)co1` [Entry 31, N-[2-(3-chlorophenyl)ethyl]-2-({[({4-[(trifluoromethyl)oxy]phenyl}oxy)acetyl]amino}methyl)-1,3-oxazole-4-carboxamide]: the IC50 lay in the range of 50 to 500 nM. The figure for `C[C@@H]1[C@@H](NC(=O)c2csc(CNC(=O)COc3ccc(OC(F)(F)F)cc3)n2)C[C@H]2C[C@@H]1C2(C)C` [Entry 12, 2-({[({4-[(trifluoromethyl)oxy]phenyl}oxy)acetyl]amino}methyl)-N-[(1S,2S,3S,5R)-2,6,6-trimethylbicyclo[3.1.1]hept-3-yl]-1,3-thiazole-4-carboxamide] is less than 50 nM; for `O=C(COc1ccc(OC(F)(F)F)cc1)NCc1nc(C(=O)NCCc2ccncc2)cs1` [Entry 48, N-(2-pyridin-4-ylethyl)-2-({[({4-[(trifluoromethyl)oxy]phenyl}oxy)acetyl]amino}methyl)-1,3-thiazole-4-carboxamide] it is 50 to 500 nM. For the compound `O=C(COc1ccc(OC(F)(F)F)cc1)NCc1nc(C(=O)N2CCc3ccccc3C2)cs1` [Entry 139, N-{[4-(3,4-dihydroisoquinolin-2(1H)-ylcarbonyl)-1,3-thiazol-2-yl]methyl}-2-({4-[(trifluoromethyl)oxy]phenyl}oxy)acetamide], the half-inhibitory concentration (IC50) was 50 to 500 nM. For `CCOc1ccc(NC(=O)NCc2nc(C(=O)NCCc3cccc(Cl)c3)cs2)cc1` [Entry 184, N-[2-(3-chlorophenyl)ethyl]-2-{[({[4-(ethyloxy)phenyl]amino}carbonyl)amino]methyl}-1,3-thiazole-4-carboxamide] the value was 50 to 500 nM; for `Cc1ccc(CCNC(=O)c2csc(CNC(=O)COc3ccc(OC(F)(F)F)cc3)n2)c(C)c1` [Entry 49, N-[2-(2,4-dimethylphenyl)ethyl]-2-({[({4-[(trifluoromethyl)oxy]phenyl}oxy)acetyl]amino}methyl)-1,3-thiazole-4-carboxamide], 50 to 500 nM; for `COCCCNC(=O)c1csc(CNC(=O)COc2ccc(OC(F)(F)F)cc2)n1` [Entry 269, N-[3-(methyloxy)propyl]-2-({[({4-[(trifluoromethyl)oxy]phenyl}oxy)acetyl]amino}methyl)-1,3-thiazole-4-carboxamide], 500 to 2000 nM. For `O=C(COc1ccc(OC(F)(F)F)cc1)NCc1nc(C(=O)NC2CCCCC2)cs1` [Entry 209, N-cyclohexyl-2-({[({4-[(trifluoromethyl)oxy]phenyl}oxy)acetyl]amino}methyl)-1,3-thiazole-4-carboxamide] the value was 50 to 500 nM; for `CSc1ccc(CC(=O)NCc2nc(C(=O)NCCc3cccc(Cl)c3)cs2)cc1` [Entry 232, N-[2-(3-chlorophenyl)ethyl]-2-[({[4-(methylthio)phenyl]acetyl}amino)methyl]-1,3-thiazole-4-carboxamide], 500 to 2000 nM; for `CSc1ccccc1CNC(=O)c1coc(CNC(=O)COc2ccc(OC(F)(F)F)cc2)n1` [Entry 186, N-{[2-(methylthio)phenyl]methyl}-2-({[({4-[(trifluoromethyl)oxy]phenyl}oxy)acetyl]amino}methyl)-1,3-oxazole-4-carboxamide], 50 to 500 nM.

`O=C(COc1ccc(OC(F)(F)F)cc1)NCc1nc(C(=O)NCCC(c2ccccc2)c2ccccc2)cs1` [Entry 260, N-(3,3-diphenylpropyl)-2-({[({4-[(trifluoromethyl)oxy]phenyl}oxy)acetyl]amino}methyl)-1,3-thiazole-4-carboxamide]: the 50% inhibitory concentration (IC50) is 500 to 2000 nM. Consider `O=C(COc1ccc(OC(F)(F)F)cc1)NCc1nc(C(=O)N[C@H]2CCCc3ccccc32)cs1` [Entry 79, N-[(1S)-1,2,3,4-tetrahydronaphthalen-1-yl]-2-({[({4-[(trifluoromethyl)oxy]phenyl}oxy)acetyl]amino}methyl)-1,3-thiazole-4-carboxamide], for which the IC50 was in the range of 50 to 500 nM.

Regarding `O=C(COc1ccc(OC(F)(F)F)cc1)NCc1nc(C(=O)NCCC2=CCCCC2)co1` [Entry 176, N-(2-cyclohex-1-en-1-ylethyl)-2-({[({4-[(trifluoromethyl)oxy]phenyl}oxy)acetyl]amino}methyl)-1,3-oxazole-4-carboxamide], the IC50 fell in the range of 50 to 500 nM. The figure for `O=C(COc1ccc(OC(F)(F)F)cc1)NCc1nc(C(=O)NCc2ccccc2Cl)cs1` [Entry 32, N-[(2-chlorophenyl)methyl]-2-({[({4-[(trifluoromethyl)oxy]phenyl}oxy)acetyl]amino}methyl)-1,3-thiazole-4-carboxamide] is 50 to 500 nM; for `CCOc1ccccc1CNC(=O)c1csc(CNC(=O)COc2ccc(OC(F)(F)F)cc2)n1` [Entry 58, N-{[2-(ethyloxy)phenyl]methyl}-2-({[({4-[(trifluoromethyl)oxy]phenyl}oxy)acetyl]amino}methyl)-1,3-thiazole-4-carboxamide] it is 50 to 500 nM. The figure for `CCCCC(CC)CNC(=O)c1csc(CNC(=O)COc2ccc(OC(F)(F)F)cc2)n1` (stereo not shown) [Entry 200, N-(2-ethylhexyl)-2-({[({4-[(trifluoromethyl)oxy]phenyl}oxy)acetyl]amino}methyl)-1,3-thiazole-4-carboxamide] is 50 to 500 nM; for `O=C(COc1ccc(OC(F)(F)F)cc1)NCc1nc(C(=O)NC(Cc2ccccc2)c2ccccc2)cs1` (stereo not shown) [Entry 222, N-(1,2-diphenylethyl)-2-({[({4-[(trifluoromethyl)oxy]phenyl}oxy)acetyl]amino}methyl)-1,3-thiazole-4-carboxamide] it is 500 to 2000 nM.

In the case of `O=C(COc1ccc(OC(F)(F)F)cc1)NCc1nc(C(=O)NC2CCCCCCC2)cs1` [Entry 76, N-cyclooctyl-2-({[({4-[(trifluoromethyl)oxy]phenyl}oxy)acetyl]amino}methyl)-1,3-thiazole-4-carboxamide], the IC50 lay within 50 to 500 nM. `C[C@@H]1CN(C(=O)c2csc(CNC(=O)COc3ccc(OC(F)(F)F)cc3)n2)C[C@H](C)O1` [Entry 255, N-[(4-{[(2R,6S)-2,6-dimethylmorpholin-4-yl]carbonyl}-1,3-thiazol-2-yl)methyl]-2-({4-[(trifluoromethyl)oxy]phenyl}oxy)acetamide]: the IC50 fell in the range of 500 to 2000 nM. Consider `O=C(COc1ccc(I)cc1)NCc1nc(C(=O)NCCc2cccc(Cl)c2)cs1` [Entry 16, N-[2-(3-chlorophenyl)ethyl]-2-[({[(4-iodophenyl)oxy]acetyl}amino)methyl]-1,3-thiazole-4-carboxamide], for which the IC50 is less than 50 nM.

In the case of `COc1ccc(CCNC(=O)c2csc(CNC(=O)COc3ccc(OC(F)(F)F)cc3)n2)cc1OC` [Entry 42, N-{2-[3,4-bis(methyloxy)phenyl]ethyl}-2-({[({4-[(trifluoromethyl)oxy]phenyl}oxy)acetyl]amino}methyl)-1,3-thiazole-4-carboxamide], the IC50 lay in the range of 50 to 500 nM. The figure for `Cc1cccc(CNC(=O)c2csc(CNC(=O)COc3ccc(OC(F)(F)F)cc3)n2)c1C` [Entry 46, N-[(2,3-dimethylphenyl)methyl]-2-({[({4-[(trifluoromethyl)oxy]phenyl}oxy)acetyl]amino}methyl)-1,3-thiazole-4-carboxamide] is 50 to 500 nM; for `O=C(COc1ccc(OC(F)(F)F)cc1)NCc1nc(C(=O)NCc2cccnc2)cs1` [Entry 241, N-(pyridin-3-ylmethyl)-2-({[({4-[(trifluoromethyl)oxy]phenyl}oxy)acetyl]amino}methyl)-1,3-thiazole-4-carboxamide] it is 500 to 2000 nM. For the compound `CCSCCNC(=O)c1csc(CNC(=O)COc2ccc(OC(F)(F)F)cc2)n1` [Entry 146, N-[2-(ethylthio)ethyl]-2-({[({4-[(trifluoromethyl)oxy]phenyl}oxy)acetyl]amino}methyl)-1,3-thiazole-4-carboxamide], the IC50 is 50 to 500 nM. `CCOc1cc(CCNC(=O)c2csc(CNC(=O)COc3ccc(OC(F)(F)F)cc3)n2)ccc1OC` [Entry 20, N-{2-[3-(ethyloxy)-4-(methyloxy)phenyl]ethyl}-2-({[({4-[(trifluoromethyl)oxy]phenyl}oxy)acetyl]amino}methyl)-1,3-thiazole-4-carboxamide]: the IC50 was less than 50 nM. As to `O=C(COc1ccc(OC(F)(F)F)cc1)NCc1nc(C(=O)NCc2c(F)cccc2F)cs1` [Entry 115, N-[(2,6-difluorophenyl)methyl]-2-({[({4-[(trifluoromethyl)oxy]phenyl}oxy)acetyl]amino}methyl)-1,3-thiazole-4-carboxamide], the 50% inhibitory concentration (IC50) fell in the range of 50 to 500 nM. For `O=C(COc1ccc(OC(F)(F)F)cc1)NCc1nc(C(=O)NCCc2ccc(Cl)cc2Cl)cs1` [Entry 160, N-[2-(2,4-dichlorophenyl)ethyl]-2-({[({4-[(trifluoromethyl)oxy]phenyl}oxy)acetyl]amino}methyl)-1,3-thiazole-4-carboxamide], the IC50 was in the range of 50 to 500 nM. Regarding `COc1ccc(OC)c(CNC(=O)c2csc(CNC(=O)COc3ccc(OC(F)(F)F)cc3)n2)c1` [Entry 112, N-{[2,5-bis(methyloxy)phenyl]methyl}-2-({[({4-[(trifluoromethyl)oxy]phenyl}oxy)acetyl]amino}methyl)-1,3-thiazole-4-carboxamide], the IC50 fell in the range of 50 to 500 nM.
